Reference: ChEMBL document CHEMBL1201862, “PubChem BioAssay data set” (2004)
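1) Cells in 96-well plates. 2) Compound, 48 h, 5 concentrations. 3) Linear interpolation between surrounding doses. 4) Unreached endpoint = highest concentration. Here, GI50 denotes the concentration required for 50% inhibition of growth.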 Activity calls are given as the source filed them. Cut-off read from the data, not from the text of the source: active = GI50 up to about 1.1 µM and inactive = higher.

Columns and labels:
Experiment in all cases: inhibition of tumour cell growth, NCI panel, 48 h
SK-OV-3 = system: SK-OV-3
HL-60 = system: HL-60
OVCAR-3 = system: OVCAR-3
MDA-MB-231 = system: MDA-MB-231
MDA-N = system: MDA-N
T47D = system: T47D
OVCAR-8 = system: OVCAR-8
A498 = system: A498
DMS-273 = system: DMS-273
MDA-MB-435 = system: MDA-MB-435
SF-539 = system: SF-539
TK-10 = system: TK-10
COLO 205 = system: COLO 205
A549 = system: A549
M14 = system: M14
K562 = system: K562
RXF 393 = system: RXF 393
DU-145 = system: DU-145
NCI-H226 = system: NCI-H226
BT-549 = system: BT-549

SMILES | GI50 (SK-OV-3) | GI50 (HL-60) | GI50 (OVCAR-3) | GI50 (MDA-MB-231) | GI50 (MDA-N) | GI50 (T47D) | GI50 (OVCAR-8) | GI50 (A498) | GI50 (DMS-273) | GI50 (MDA-MB-435) | GI50 (SF-539) | GI50 (TK-10) | GI50 (COLO 205) | GI50 (A549) | GI50 (M14) | GI50 (K562) | GI50 (RXF 393) | GI50 (DU-145) | GI50 (NCI-H226) | GI50 (BT-549)
C=C1[C@@H](C)[C@H]2[C@H](Cc3ccccc3)NC(=O)[C@]23OC(=O)/C=C/[C@H](O)CCC[C@@H](C)C/C=C/[C@H]3[C@@H]1O | 32.6 µM (inactive) | 16.1 µM (inactive) | 7.48 µM (inactive) | 5.31 µM (inactive) | 14.2 µM (inactive) | 2.92 µM (inactive) | 5.43 µM (inactive) | 1.83 µM (inactive) | 8.93 µM (inactive) | 21.8 µM (inactive) | 0.465 µM (active) | 4.06 µM (inactive) | 0.713 µM (active) | 2.85 µM (inactive) | > 100 µM (inactive) | 9.18 µM (inactive) | 0.94 µM (active) | 30.1 µM (inactive) | 1.18 µM (inactive) | 15.4 µM (inactive)
NC(=O)c1c[se]c(C2OC(CO)C(O)C2O)n1 (stereo not given) | > 29 µM (inactive) | 0.984 µM (active) | 0.74 µM (active) | 5.01 µM (inactive) | 36.4 µM (inactive) | > 100 µM (inactive) | 4.31 µM (inactive) | 44 µM (inactive) | 3.58 µM (inactive) | 7.29 µM (inactive) | 2.43 µM (inactive) | > 91.4 µM (inactive) | 1.22 µM (inactive) | 8.67 µM (inactive) | 1.63 µM (inactive) | 0.627 µM (active) |  | 31.8 µM (inactive) | > 58.6 µM (inactive) | 8.09 µM (inactive)
Oc1cc(-n2cccn2)c(O)cc1-n1cccn1 | > 100 µM (inactive) | 6.43 µM (inactive) | 19.1 µM (inactive) | 21.9 µM (inactive) | 17.6 µM (inactive) | 22.3 µM (inactive) | 26.2 µM (inactive) | > 72.8 µM (inactive) | 41.3 µM (inactive) | 17.5 µM (inactive) | 62.1 µM (inactive) | 26.8 µM (inactive) | 18.1 µM (inactive) | > 86.9 µM (inactive) | 27 µM (inactive) | 11.2 µM (inactive) | 16.7 µM (inactive) | > 48.2 µM (inactive) | 62.5 µM (inactive) | 18.7 µM (inactive)
COc1ccc(CC2C(=O)NC(C)C(=O)N(C)C3C(=O)N(C)C(Cc4ccc(O)c(c4)Oc4ccc(cc4)C3O)C(=O)NC(C)C(=O)NC(C)C(=O)N2C)cc1 (stereo not given) | 0.0236 µM (active) | 0.00308 µM (active) | 0.0113 µM (active) | < 0.01 µM (active) |  | < 0.01 µM (active) | 0.021 µM (active) | 0.022 µM (active) | 0.0123 µM (active) | < 0.01 µM (active) | 0.0136 µM (active) | 0.336 µM (active) | 0.0206 µM (active) | 0.0353 µM (active) | 0.0275 µM (active) | 0.0179 µM (active) | 0.0396 µM (active) | < 0.01 µM (active) | 0.00459 µM (active) | < 0.01 µM (active)
Cc1cn([C@H]2C[C@H](N=[N+]=[N-])[C@@H](CO)O2)c(=O)[nH]c1=O [ZIDOVUDINE] | > 100 µM (inactive) | 646 µM (inactive) | > 100 µM (inactive) | > 100 µM (inactive) | 655 µM (inactive) | > 100 µM (inactive) | 180 µM (inactive) | 66.2 µM (inactive) | > 100 µM (inactive) | 565 µM (inactive) |  | 656 µM (inactive) | 98.4 µM (inactive) | > 97.3 µM (inactive) | > 100 µM (inactive) | 177 µM (inactive) | 89.5 µM (inactive) | 420 µM (inactive) | > 100 µM (inactive) | 488 µM (inactive)
CN(C)CCCNc1ccc2nnn3c4ccc([N+](=O)[O-])cc4c(=O)c1c23 | 1.79 µM (inactive) | 1.83 µM (inactive) | 2.55 µM (inactive) | 0.274 µM (active) | 2.09 µM (inactive) | 11.4 µM (inactive) | 0.597 µM (active) | 2.26 µM (inactive) | 0.685 µM (active) | 1.49 µM (inactive) | 2.13 µM (inactive) | 1.13 µM (inactive) | 0.834 µM (active) | 0.721 µM (active) | 2.14 µM (inactive) | 0.589 µM (active) | 1.12 µM (active) | 1.71 µM (inactive) | 0.403 µM (active) | 5.26 µM (inactive)
COc1cc(Nc2nc3c(N)cc(C(F)(F)F)cc3nc2-c2ccccc2)cc(OC)c1OC | 42.5 µM (inactive) | > 100 µM (inactive) | 57.1 µM (inactive) | > 42.5 µM (inactive) | > 80.7 µM (inactive) | 14.1 µM (inactive) | 24.5 µM (inactive) |  | 37.9 µM (inactive) | > 69.2 µM (inactive) | 28.1 µM (inactive) | 29.2 µM (inactive) | 99.3 µM (inactive) | 49.5 µM (inactive) | 66.2 µM (inactive) | > 100 µM (inactive) | 1.98 µM (inactive) | > 100 µM (inactive) | 61.1 µM (inactive) | 35.5 µM (inactive)
Cc1cc(N(CCC#N)CCC#N)ccc1/C(Sc1ccccc1)=C(\NC(=O)/C=C/c1ccccc1)C(=O)Sc1ccccc1 | 5.55 µM (inactive) | 0.628 µM (active) | 2.92 µM (inactive) |  |  |  | 2.94 µM (inactive) | 4.06 µM (inactive) | 6.44 µM (inactive) |  | 1.47 µM (inactive) | 5.35 µM (inactive) | 2.55 µM (inactive) | 2.02 µM (inactive) | 1.82 µM (inactive) | 2.41 µM (inactive) | 1.56 µM (inactive) |  | 2.56 µM (inactive) | 
